From patent US7637980B2, “Method of increasing photosynthesis in plants comprising an exposure thereof to lipochitooligosaccharides and compositions therefor” (McGill University, priority 1999, dated 2009) come the findings set out here.

Holding throughout (type): in vivo
One assay concerns soybean (cv Bayfield). Kind of assay: Leaf area and shoot dry weight of soybean after LCO spray, greenhouse. The settings on record: seven days after treatment. As for the experimental part: Soybean (cv Bayfield) seeds were surface sterilized with 2% sodium hypochlorite for 3-4 minutes, washed with several changes of sterile distilled water and germinated in plastic trays containing sterile vermiculite. Seedlings at the two-leaf stage, about seven days of planting, were transplanted into 15 cm plastic pots containing promix (Premier Brands Inc., New Rochelle, N.Y., USA). Pots were placed in a greenhouse maintained at 25±2° C. with a day/night cycle of 16/8 h. Plants were watered as required.
(§1) Concentrations of LCO (10^−6 M-10^−12 M) were made with distilled water containing 0.02% Tween 20. A control treatment, containing 0.02% Tween 20, but no LCO was also applied. Since the rates of growth and development differed among the plant species used in the experiments, spray treatment was conducted at different times after planting In general, the spray was applied when the plants were big enough to allow easy measurements of leaf photosynthetic rates. The following are the ages of the plants when the sprays were conducted: soybean 21 days after planting (DAP), corn 25 DAP, rice 45 DAP, melon (35 DAP) and canola 30 DAP. The plants were sprayed with LCO solutions until dripping. The sprays were applied with an atomizer (Nalgene, USA). Each plant required 2-3 mL of spray solution. Each treatment was replicated at least five times and organized on the green house bench in a randomized complete block design. Each experiment (with each crop species) was repeated at least twice.
(§2) Photosynthesis was recorded every 24 h using a Li-Cor 6400 portable photosynthesis system (Li-Cor Inc., Lincoln, Neb., USA) for 6 days. In the case of soybean the photosynthesis in the second nodal leaf from the top was recorded while in the other species used in the photosynthetic rate was measured for the top-most fully expanded leaf. Soybean plants were harvested after seven days of LCO treatment and dried at 80° C. for 48 h. Data were analyzed with the Statistical Analysis System (SAS Inc., N.C., USA). Percent increase in photosynthesis over the control was calculated.

Assay [1] has as its system canola (Brassica napus cv Springfield). The experiment in a line: Photosynthesis of canola after LCO spray, greenhouse. On the procedure: (§3) Seeds of rice (Oryza sativa cv Cypress), canola (Brassica napus cv Springfield), corn (Zea mays cv Pioneer 3921) and melon (Cucumis melo cv Nova) were surface sterilized with 2% sodium hypochlorite for 3-4 min, washed with several changes of sterile distilled water and planted in plastic pots (15 cm dia) containing promix (Premier Brands Inc., New Rochelle, N.Y., USA).
as §1, §2

Assay [2] relates to melon (Cucumis melo cv Nova). Kind of assay: Photosynthesis of melon after LCO spray, greenhouse. As for the experimental part:
as §3, §1, §2

As to Nod Bj V (C18:1, MeFeu), the Leaf area was 223.6 cm^2 in the assay with soybean (cv Bayfield) (10^−6 M); 193.6 cm^2 in the assay on soybean (cv Bayfield) (10^−7 M); 217.6 cm^2 in the assay on soybean (cv Bayfield) (10^−8 M); 194.3 cm^2 in the assay with soybean (cv Bayfield) (10^−9 M); 195.3 cm^2 with soybean (cv Bayfield) (10^−10 M); 202.6 cm^2 with soybean (cv Bayfield) (10^−11 M). This substance also showed a Leaf area in the assay on soybean (cv Bayfield) (10^−12 M) of 230.3 cm^2. Besides, the Shoot dry weight worked out at 1065.8 mg in the assay on soybean (cv Bayfield) (10^−6 M); 1135.2 mg with soybean (cv Bayfield) (10^−7 M); 1095.7 mg in the assay on soybean (cv Bayfield) (10^−8 M); 999.9 mg in the assay on soybean (cv Bayfield) (10^−9 M); 1012.3 mg with soybean (cv Bayfield) (10^−10 M); 931.6 mg in the assay on soybean (cv Bayfield) (10^−11 M). The same substance showed a Shoot dry weight with soybean (cv Bayfield) (10^−12 M) of 1060.8 mg. Moreover, the “shoot dry weights vs control plants” value in the assay on soybean (cv Bayfield) (p<0.05) is recorded as “higher”. In addition, in the assay on soybean (cv Bayfield) (p=0.09), the “leaf areas vs control plants” value is on record as “only increased numerically”. Besides, the “intercellular CO2 concentration” value in assay [1] and in assay [2] was “unaffected” throughout. Further, the stomatal conductance entry in assay [1] and in assay [2] was “increases” throughout. Further, the transpiration result in assay [1] and in assay [2] was “increases” throughout. The increase in photosynthesis in assay [1] (in general) and in assay [2] (in general) was 10-20% in each case.
